This is an account of results in patent US8236789B2, “1-adamantyl azetidin-2-one derivatives and drugs containing same” (Kowa Company, Ltd., priority 2008, dated 2012).

The target in test [1] is T1, human 11β-HSD1 (Homo sapiens, UniProt P28845).
T1 construct: expressed in transfected cells
As to the kind of experiment: Enzyme inhibitory activity assay, lysate of HEK293 cells stably expressing human 11β-HSD1, cortisol by competitive ELISA. Type of test: biochemical. To be noted: Table 1; cell lysate, 100 nmol/L cortisone, NADPH, 37° C. 1 hour; read-out: in vitro assay (IC50 uM) h HSD1. As for the experimental part:
(§1) 1. Human 11β-HSD1-, Human 11β-HSD2- and Mouse 11β-HSD1-Gene Clonings and Establishment of Stably Expressing Cells
(§2) Human 11β-HSD1- and human 11β-HSD2-expressing vectors were transfected into human kidney-derived cell line, HEK293 cells, using a transfection reagent, jet PEI (Funakoshi). Mouse 11β-HSD1 was transfected to Chinese hamster ovary-derived cell line, CHO-K1 cells. Selection was conducted with 200-400 μg/mL of zeocine (Invitrogen) to provide stably expressing-cell clones. The stably expressing cells were suspended in buffer solution A (20 mmol/L Tris-HCl, pH 7.4, 250 mmol/L sucrose, 1 mmol/L EGTA, 1 mmol/L EDTA, 1 mmol/L MgCl2), sonicated, and then stored at −80° C.
(§3) 2. Assay of Enzyme Inhibitory Activity
(§4) An enzymatic reaction was conducted using a polystyrene 96-well plate. Each well was added with 1 μL of a test agent dissolved in DMSO and then diluted (0.003 to 3 mmol/L), and further added with 10 μL of cell lysate diluted to a concentration of 0.1 mg/mL to 0.4 mg/mL. Next, 90 μL of buffer solution A containing substrate (100 nmol/L cortisone or cortisol) and coenzyme (400 μmol/L NADPH or NAD+) was added and the mixture was incubated at 37° C. for 1 hour. The enzymatic reaction was stopped by treating at 95° C. for 3 minutes. Cortisol that was present in the reaction solution was determined by a competitive ELISA shown below.
(§5) Anti-rabbit IgG antibody (Chemi-con) diluted to 2 μg/mL with carbonate buffer solution (pH 9.6) was added in 100 μL each to a 96-well immuno plate (Nunc) and immobilized by an incubation at 4° C. overnight. […] After washed three times with buffer solution B containing 0.05% Tween 20, the plates were allowed to develop color by adding 100 μL, of color reagent, TMB (Moss). The color reaction was stopped by 25 μL of 1 mol/L sulfuric acid and the absorbance was determined at 450 nm with a microplate reader (Molecular Device, VersaMax).

For test [2], the target named is T2, mouse 11β-HSD1 (Mus musculus, UniProt P50172).
T2 construct: expressed in transfected cells
T2 sequence (P50172 whole entry): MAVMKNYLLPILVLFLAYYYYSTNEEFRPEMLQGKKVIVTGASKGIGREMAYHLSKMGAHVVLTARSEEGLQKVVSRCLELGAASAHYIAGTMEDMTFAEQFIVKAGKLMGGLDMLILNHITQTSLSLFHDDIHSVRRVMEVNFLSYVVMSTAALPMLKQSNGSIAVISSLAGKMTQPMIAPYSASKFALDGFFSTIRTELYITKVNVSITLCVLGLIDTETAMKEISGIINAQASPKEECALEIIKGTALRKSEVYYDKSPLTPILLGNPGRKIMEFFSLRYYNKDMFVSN
As to the kind of experiment: Enzyme inhibitory activity assay, lysate of CHO-K1 cells stably expressing mouse 11β-HSD1, cortisol by competitive ELISA. In kind it is biochemical. To be noted: Table 2; cell lysate, 100 nmol/L cortisone, NADPH, 37° C. 1 hour; read-out: in vitro assay (IC50 uM) m HSD1. As for the experimental part:
as §1, §2, §3, §4, §5
Background: In an ELISA, binding on a coated surface is turned into a signal by an enzyme label.

T1 sequence (P28845 whole entry): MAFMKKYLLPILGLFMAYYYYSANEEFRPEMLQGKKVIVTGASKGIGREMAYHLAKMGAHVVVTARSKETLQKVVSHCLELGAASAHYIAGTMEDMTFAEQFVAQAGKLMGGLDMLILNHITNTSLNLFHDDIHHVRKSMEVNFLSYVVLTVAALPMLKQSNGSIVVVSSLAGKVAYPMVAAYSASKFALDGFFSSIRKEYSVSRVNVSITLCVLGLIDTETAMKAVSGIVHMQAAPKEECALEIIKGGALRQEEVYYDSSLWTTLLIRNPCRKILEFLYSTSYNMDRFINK

`CC1(C)C(=O)N([C@H]2C3CC4CC2C[C@](Cl)(C4)C3)C1c1cccc(Cl)c1Cl` (stereo partly drawn) [Example 3, trans-1-(5-chloroadamantan-2-yl)-3,3-dimethyl-4-(2,3-dichlorophenyl)azetidin-2-one]: the values for the IC50 in test [1] and in test [2] were 0.057 µM and 0.31 µM, respectively. Taken in the same sequence, the figures for `CC1(C)C(=O)N([C@H]2C3CC4CC2C[C@](C(N)=O)(C4)C3)C1c1cccc(Cl)c1Cl` (stereo partly drawn) [Example 9, trans-4-[2-(2,3-dichlorophenyl)-3,3-dimethyl-4-oxoazetidin-1-yl]-1-adamantane carboxyamide] were 0.005 µM and 0.035 µM.

With `CC1(C)C(=O)N([C@H]2C3CC4CC2C[C@](C(N)=O)(C4)C3)C1c1cccc2ccccc12` (stereo partly drawn) [Example 12, trans-4-[2-(naphthalen-1-yl)-3,3-dimethyl-4-oxoazetidin-1-yl]-1-adamantane carboxyamide], the IC50 (commonly the concentration at which inhibition is half-maximal) in test [1] was 0.022 µM; in test [2], 0.023 µM. In the same order, the values of `CC1(C)C(=O)N(C2C3CC4CC(C3)CC2C4)C1c1cccc2ccccc12` (stereo not shown) [Example 45, 1-(adamantan-2-yl)-3,3-dimethyl-4-(naphthalen-1-yl)azetidin-2-one] are 0.0081 µM and 0.0035 µM. As to `CC1(C)C(=O)N([C@H]2C3CC4CC2C[C@@](Cl)(C4)C3)C1c1cccc2ccccc12` (stereo partly drawn) [Example 6, cis-1-(5-chloroadamantan-2-yl)-3,3-dimethyl-4-(naphthalen-1-yl)azetidin-2-one], the results for the IC50 in test [1] and in test [2] were 0.56 µM and 0.87 µM, respectively.

As to `CC1(C)C(=O)N(C2C3CC4CC(C3)CC2C4)C1c1cccc(Cl)c1Cl` (stereo not shown) [Example 2, 1-(adamantan-2-yl)-3,3-dimethyl-4-(2,3-dichlorophenyl)azetidin-2-one], the figures for the half-maximal inhibitory concentration (IC50) in test [1] and in test [2] were 0.0054 µM and 0.054 µM, respectively. Consider `COC(=O)[C@]12CC3CC(C1)[C@@H](N1C(=O)C(C)(C)C1c1cccc4cccnc14)C(C3)C2` (stereo partly drawn) [Example 18, methyl trans-4-[2-(quinolin-8-yl)-3,3-dimethyl-4-oxoazetidin-1-yl]-1-adamantane carboxylate], for which the IC50 came to 0.029 µM in test [1] and 0.074 µM in test [2]. With `CSc1ccc(C2N(C3C4CC5CC(C4)CC3C5)C(=O)C2(C)C)cc1` (stereo not shown) [Example 55, 1-(adamantan-2-yl)-3,3-dimethyl-4-[4-(methylthio)phenyl]azetidin-2-one], the IC50 came out at 0.0039 µM in test [1] and 0.87 µM in test [2]. As to `CC1(C)C(=O)N([C@H]2C3CC4CC2C[C@](C(N)=O)(C4)C3)C1c1cccc2c1OCO2` (stereo partly drawn) [Example 15, trans-4-[2-(benzo[d][1,3]dioxol-4-yl)-3,3-dimethyl-4-oxoazetidin-1-yl]-1-adamantane carboxyamide], the IC50 in test [1] and in test [2] was 0.031 µM each time.

For `CC1(C)C(=O)N([C@H]2C3CC4CC2C[C@](O)(C4)C3)C1c1cccc(Cl)c1Cl` (stereo partly drawn) [Example 46, trans-1-(5-hydroxyadamantan-2-yl)-3,3-dimethyl-4-(2,3-dichlorophenyl)azetidin-2-one], the results for the IC50 in test [1] and in test [2] were 0.0081 µM and 0.029 µM, respectively. On to `CC1(C)C(=O)N(C2C3CC4CC(C3)CC2C4)C1c1cc(C(F)(F)F)cc(C(F)(F)F)c1` (stereo not shown) [Example 54, 1-(adamantan-2-yl)-3,3-dimethyl-4-[3,5-bis(trifluoromethyl)phenyl]azetidin-2-one], for which the IC50 in test [1] is 0.91 µM.

For `COc1ccc(C2N([C@H]3C4CC5CC3C[C@](O)(C5)C4)C(=O)C2(C)C)c2ccccc12` (stereo partly drawn) [Example 48, trans-1-(5-hydroxyadamantan-2-yl)-3,3-dimethyl-4-(4-methoxynaphthalen-1-yl)azetidin-2-one], the figures for the IC50 in test [1] and in test [2] were 0.0088 µM and 0.33 µM, respectively. For `CC1(C)C(=O)N([C@H]2C3CC4CC2C[C@@](Cl)(C4)C3)C1c1cccc(Cl)c1Cl` (stereo partly drawn) [Example 4, cis-1-(5-chloroadamantan-2-yl)-3,3-dimethyl-4-(2,3-dichlorophenyl)azetidin-2-one], the IC50 in test [1] was determined as 0.046 µM; in test [2], 0.34 µM. As for `CC1(C)C(=O)N(C2C3CC4CC(C3)CC2C4)C1c1cc(F)c(F)c(F)c1` (stereo not shown) [Example 36, 1-(adamantan-2-yl)-3,3-dimethyl-4-(3,4,5-trifluorophenyl)azetidin-2-one], the IC50 in test [1] is 0.091 µM. Take `CC1(C)C(=O)N(C2C3CC4CC(C3)CC2C4)C1c1ccc(Br)cc1` (stereo not shown) [Example 43, 1-(adamantan-2-yl)-3,3-dimethyl-4-(4-bromophenyl)azetidin-2-one]: in test [1], the IC50 amounted to 0.025 µM. On to `CC1(C)C(=O)N([C@H]2C3CC4CC2C[C@](C(=O)O)(C4)C3)C1c1cccc2c1OCO2` (stereo partly drawn) [Example 14, trans-4-[2-(benzo[d][1,3]dioxol-4-yl)-3,3-dimethyl-4-oxoazetidin-1-yl]-1-adamantane carboxylic acid], for which the IC50 worked out at 0.013 µM in test [1] and 0.0095 µM in test [2]. Consider `COC(=O)[C@]12CC3CC(C1)[C@@H](N1C(=O)C(C)(C)C1c1cccc4c1OCO4)C(C3)C2` (stereo partly drawn) [Example 13, methyl trans-4-[2-(benzo[d][1,3]dioxol-4-yl)-3,3-dimethyl-4-oxoazetidin-1-yl]-1-adamantane carboxylate], for which the IC50 was 0.051 µM in test [1] and 0.24 µM in test [2]. In the same order, the values of `CC1(C)C(=O)N([C@H]2C3CC4CC2C[C@](O)(C4)C3)C1c1cccc2ccccc12` (stereo partly drawn) [Example 47, trans-1-(5-hydroxyadamantan-2-yl)-3,3-dimethyl-4-(naphthalen-1-yl)azetidin-2-one] are 0.0075 µM and 0.0056 µM.

For the compound `CC1(C)C(=O)N(C2C3CC4CC(C3)CC2C4)C1c1cccc(C(F)(F)F)c1F` (stereo not shown) [Example 28, 1-(adamantan-2-yl)-3,3-dimethyl-4-(2-fluoro-3-trifluoromethylphenyl)azetidin-2-one], the results for the IC50 in test [1] and in test [2] were 0.029 µM and 0.16 µM, respectively. `CC1(C)C(=O)N([C@H]2C3CC4CC2C[C@](C(N)=O)(C4)C3)C1c1ccnc2ccccc12` (stereo partly drawn) [Example 51, trans-4-[2-(quinolin-4-yl)-3,3-dimethyl-4-oxoazetidin-1-yl]-1-adamantane carboxyamide]: in test [1], the IC50 was 0.08 µM. Same read-out and setting: to `CC1(C)C(=O)N(C2C3CC4CC(C3)CC2C4)C1c1ccc(F)c(C(F)(F)F)c1` (stereo not shown) [Example 32, 1-(adamantan-2-yl)-3,3-dimethyl-4-(4-fluoro-3-trifluoromethylphenyl)azetidin-2-one] belongs 0.024 µM; to `CC1(C)C(=O)N([C@H]2C3CC4CC2C[C@](C(N)=O)(C4)C3)C1c1cccc2cnccc12` (stereo partly drawn) [Example 16, trans-4-[2-(isoquinolin-5-yl)-3,3-dimethyl-4-oxoazetidin-1-yl]-1-adamantane carboxyamide], 0.41 µM. The same measure, in the same setting: in the case of `CC1(C)C(=O)N([C@H]2C3CC4CC2C[C@](C(=O)O)(C4)C3)C1c1cccc(Cl)c1Cl` (stereo partly drawn) [Example 8, trans-4-[2-(2,3-Dichlorophenyl)-3,3-dimethyl-4-oxoazetidin-1-yl]-1-adamantane carboxylic acid] it was 0.066 µM; in that of `COC(=O)[C@]12CC3CC(C1)[C@@H](N1C(=O)C(C)(C)C1c1ccnc4ccccc14)C(C3)C2` (stereo partly drawn) [Example 49, methyl trans-4-[2-(quinolin-4-yl)-3,3-dimethyl-4-oxoazetidin-1-yl]-1-adamantane carboxylate], 0.1 µM.
